Converted amounts (≈) assume the structure as drawn.

Here are results for 1 compound from patent US20250041239A1, “ORALLY DISSOLVING ANTIMICROBIAL FILM COMPOSITIONS & METHODS OF THEIR USE” (ISHA Therapeutics LLC, priority 2022, published 2025).

For data set [1] the following is noted: physiological pH; cited from earlier work.
The subject of another data set is Candida spp. Put plainly: Resazurin microtiter assay (REMA), MIC, Candida spp. tested. Conditions: Candida albicans and Candida tropicalis; read-out: average MIC against Candida spp. tested. Format: cell-based. The method, then:
This Example provides a description of antifungal efficacy testing wherein minimum inhibitor concentration (MIC) of the active pharmaceutical ingredient amphotericin B in the orally dissolvable films disclosed herein compared to that of unmodified amphotericin B. The test organisms utilized in this experiment were Candida tropicalis and Candida albicans.
A resazurin microtiter assay (REMA) assay was performed using orally dissolvable films prepared according to the process described in Example 3 and unmodified amphotericin B. Samples were run in triplicate as Sets 1-3 for each test material against each pathogen.
For orientation: Alamar Blue is a resazurin reagent that responds to reducing activity.

Another data set relates to Candida tropicalis. Briefly: Agar cup diffusion, zone of inhibition. Format: cell-based. An excerpt: (§1) This Example provides a description of the antifungal activity of the active pharmaceutical ingredient amphotericin B in the orally dissolvable films disclosed herein compared to that of unmodified amphotericin B. Test organisms utilized in this experiment were Candida albicans and Candida tropicalis. Orally dissolvable amphotericin B-containing film(s) utilized in this Example were made according to the process described in Example 3.
(§2) Two different species of infectious fungal genus Candida were cultured. A first mixture of sabouraud dextrose agar and broth was inoculated with Candida albicans and allowed to sit at room temperature for a period of two days under aerobic conditions. A second mixture of sabouraud dextrose agar and broth was inoculated with Candida tropicalis and allowed to sit at room temperature for 2 days under aerobic conditions. This established two cultures (one each) of the test organisms.
(§3) To standardize the respective cultures, the optical density of each culture was adjusted using a 0.5 McFarland (turbidity) standard, approximating cultures to be approximately […] colony forming units per milliliter (cfu/mL).
(§4) Each respective suspension was mixed until homogeneous to provide a final culture density of about 1×10^4 cfu/mL.
(§5) Agar cup diffusion was used for testing antifungal activity of the test compositions. 0.1 mL of each respective sample of amphotericin B or amphotericin B-containing film was provided in a cylinder. Film concentration was 1.8 mg amphotericin B per film. Each test plate contained two samples (two cylinders). Tests were performed in triplicate (3 plates per test composition). Plates were incubated at room temperature for a period of 2 days as amphotericin B test compositions were allowed to diffuse into the agar layer containing test organism(s).
(§6) Amphotericin B and amphotericin B-containing films were then evaluated for in vitro antifungal activity by measuring the zone of inhibition and microbial inhibition concentration (MIC) of each sample. Results are shown in FIGS. 2A, 2B, and 2C for the test organism Candida albicans and FIGS. 3A, 3B, and 3C for the test organism Candida tropicalis. Therein, amphotericin B samples are indicated as “A” and amphotericin B-containing films are indicated as “B”.

The subject of the next data set is Candida albicans. Put plainly: Agar cup diffusion, zone of inhibition. It counts as cell-based.
Description: as §1, §2, §3, §4, §5, §6

Setting [2] is: 0.1 mL sample, room temperature, 2 days.

On to `C[C@@H]1[C@H](O)[C@@H](C)/C=C/C=C/C=C/C=C/C=C/C=C/C=C/[C@H](O[C@@H]2O[C@H](C)[C@@H](O)[C@H](N)[C@@H]2O)C[C@@H]2O[C@](O)(C[C@@H](O)C[C@@H](O)[C@H](O)CC[C@@H](O)C[C@@H](O)CC(=O)O[C@H]1C)C[C@H](O)[C@H]2C(=O)O` [AmpB, (1R,3S,5R,6R,9R,11R,15S,16R, 17R, 18S, 19E,21E,23E, 25E, 27E,29E,31E,33R,35S,36R,37S)-33-[(2R,3S,4S,5S,6R)-4-amino-3,5-di hydroxy-6-methyloxan-2-yl]oxy-1,3,5,6,9,11,17,37-octahydroxy-15,16,18-trimethyl-13-oxo-14,39-dioxabicyclo[33.3.1]nonatriaconta-19,21,23, 25, 27,29,31-heptaene-36-carboxylic acid], for which the solubility in saline entry in data set [1] is on record as “insoluble”. Moreover, the MIC (usually the smallest concentration in the dilution series that meets the test's criterion for growth inhibition) with Candida spp. is about 1.1 µg/mL (≈ 1.19 µM). Besides, in the data set with Candida tropicalis (setting [2]), the “Zone of Inhibition, Set 1” value was 20 mm; the “Zone of Inhibition, Set 2” value came to 22 mm; the “Zone of Inhibition, Set 3” value is on record as 22 mm. For the same compound, the “Effective Zone of Inhibition” value in the data set on Candida tropicalis (mean of Sets 1-3) was determined as 21.33 ± 1.15 mm. For the same compound, in the data set on Candida albicans (setting [2]), the “Zone of Inhibition, Set 1” value came to 19 mm; the “Zone of Inhibition, Set 2” value came out at 19 mm; the “Zone of Inhibition, Set 3” value was found to be 20 mm. The “Effective Zone of Inhibition” value in the data set on Candida albicans (mean of Sets 1-3) was 19.33 ± 0.57 mm.
